“Also recorded” adds a separate entry of the source. Like-named read-outs stand apart in the source and are kept apart here.
Assays:
Type in all cases: biochemical, hog
sucrase/isomaltase (SI) [1] = target: T1, sucrase/isomaltase (SI) (Sus scrofa, UniProt P56729); assay: Cleavage on incubation (24 hours) with SI; settings: 37° C.
Method: (§1) Sucrase/isomaltase (SI) and glucoamylase/maltase (GM) were isolated by papain digestion from hog small intestine mucosa and enriched by ammoniumsulfate precipitation. […] D) A study was first made as to what extent the inventive disaccharide derivatives and comparison substances, that is to say sucrose and maltose, were cleaved by SI or by GM during incubation for 24 hours. [table]

sucrase/isomaltase (SI) [2] = target: T1, sucrase/isomaltase (SI); assay: Inhibition of SI-catalyzed hydrolysis of sucrose (SI/sucrose), coupled HK/G6PDH optical test
Description: (§2) A) The activity of the SI enzyme complex was studied using three different substrates, that is to say sucrose, maltose and isomaltose.
(§3) Sucrase/isomaltase (SI) and glucoamylase/maltase (GM) were isolated by papain digestion from hog small intestine mucosa and enriched by ammoniumsulfate precipitation. The enzymes were separated into isolated sucrase/isomaltase (SI) and glucoamylase/maltase (GM) via an ion exchanger (DEAE cellulose), and a following fine fractionation using gel filtration on a Superdex 200 column from Pharmacia.
(§4) B) In the methods described hereinafter for determining the enzyme activity of sucrase/isomaltase and glucoamylase/maltase under the influence of the substances tested, the amount of glucose or fructose released was determined as measured parameter. This took place in an enzymatic optical test using hexokinase (HK) and glucose-6-phosphate dehydrogenase (G6PDH) as a coupled detection system (Beutler, H.-O.; in: Methods of Enzymatic Analysis; Bergmeyer, H. U.; Bergmeyer, J.; Graβl, M. (editors); 3rd edition; Vol. VI, 2–10). The measurement was made at 37° C. and a pH of 7.0.
(§5) The table below reports the composition of the assays necessary for the individual tests. In individual tests, the semimicro assay was used, but this was reduced in some cases to a micro assay.
(§6) C) Before the inhibitor strengths were determined, for each enzyme-substrate combination basic kinetics were established in which not only the Michaelis-Menten constant (KM [mmol/l]) but also the maximum velocity (Vmax [μmol/mLmin]) were determined. For the enzyme/substrate combination SI/sucrose, a substrate concentration of from 1.24 to 124 mmol/L was used, for the enzyme/substrate combination SI/maltose a substrate concentration of from 0.62 to 24.8 mmol/L was used, for the enzyme/substrate combination SI/isomaltose a substrate concentration of from 3.6 to 57.6 mmol/L was used and for the enzyme/substrate combination GM/maltose a substrate concentration of from 0.31 to 12.4 mmol/L was used in the assay.
(§7) The level of the inhibitor concentrations used depended on the strength of the resulting inhibition. For each of the enzyme-substrate combinations, 3 to 4 sets of kinetics at different inhibitor concentrations were established. The inhibitor constants Ki and Kii were, unless stated otherwise, determined from secondary Lineweaver-Burk plots.

sucrase/isomaltase (SI) [3] = target: T1, sucrase/isomaltase (SI); assay: Inhibition of SI-catalyzed hydrolysis of maltose (SI/maltose), coupled HK/G6PDH optical test
Description: (§8) A) The activity of the SI enzyme complex was studied using three different substrates, that is to say sucrose, maltose and isomaltose. The maltase activity was studied using the substrate maltose. Sucrase/isomaltase (SI) and glucoamylase/maltase (GM) were isolated by papain digestion from hog small intestine mucosa and enriched by ammoniumsulfate precipitation. […] B) In the methods described hereinafter for determining the enzyme activity of sucrase/isomaltase and glucoamylase/maltase under the influence of the substances tested, the amount of glucose or fructose released was determined as measured parameter. This took place in an enzymatic optical test using hexokinase (HK) and glucose-6-phosphate dehydrogenase (G6PDH) as a coupled detection system (Beutler, H.-O.; in: Methods of Enzymatic Analysis; Bergmeyer, H. U.; Bergmeyer, […] edition; Vol. […] The measurement was made at 37° C. and a pH of 7.0. The table below reports the composition of the assays necessary for the individual tests. In individual tests, the semimicro assay was used, but this was reduced in some cases to a micro assay. […] C) Before the inhibitor strengths were determined, for each enzyme-substrate combination basic kinetics were established in which not only the Michaelis-Menten constant (KM [mmol/l]) but also the maximum velocity (Vmax [μmol/mLmin]) were determined. […] The level of the inhibitor concentrations used depended on the strength of the resulting inhibition. For each of the enzyme-substrate combinations, 3 to 4 sets of kinetics at different inhibitor concentrations were established. The inhibitor constants Ki and Kii were, unless stated otherwise, determined from secondary Lineweaver-Burk plots.

[4] = target: glucoamylase/maltase (GM); assay: Inhibition of GM-catalyzed hydrolysis of maltose (GM/maltose), coupled HK/G6PDH optical test; settings: for Ki / KM/Ki / inhibitor strength (in words): GM/maltose; for Ki: secondary Lineweaver-Burk plots
Method: as §8, with “The” for “A) The activity of the SI enzyme complex was studied using three different substrates, that is to say sucrose, maltose and isomaltose. The”

[5] = tested on: glucoamylase/maltase (GM); assay: Cleavage on incubation (24 hours) with GM; settings: 37° C.
Method: as §1

sucrase/isomaltase (SI) [6] = target: T1, sucrase/isomaltase (SI); assay: Inhibition of SI-catalyzed hydrolysis of isomaltose (SI/isomaltose), coupled HK/G6PDH optical test; set-up: isolated by papain digestion from hog small intestine mucosa and enriched by ammoniumsulfate precipitation; from tissue; host or cells: hog small intestine mucosa; key to Type (of inhibition): K means competitive inhibition; NK means noncompetitive inhibition; UK means uncompetitive inhibition; settings: for KM/Ki / Type (of inhibition) / inhibitor strength (in words) / Ki: SI/isomaltose; for Ki: secondary Lineweaver-Burk plots
Description: as §2
The isomaltase activity was studied using the substrate isomaltose.
as §3, §4, §5, §6, §7

[7] = cleavage product detected: fructose
[8] = cleavage product detected: glucose
[9] = SI/sucrose, secondary Lineweaver-Burk plots, read-out: Ki
[10] = SI/sucrose, secondary Lineweaver-Burk plots, read-out: Kii
[11] = SI/maltose, secondary Lineweaver-Burk plots, read-out: Ki
[12] = SI/maltose, secondary Lineweaver-Burk plots, read-out: Kii

T1 sequence (P56729 with tags, fused parts or gaps): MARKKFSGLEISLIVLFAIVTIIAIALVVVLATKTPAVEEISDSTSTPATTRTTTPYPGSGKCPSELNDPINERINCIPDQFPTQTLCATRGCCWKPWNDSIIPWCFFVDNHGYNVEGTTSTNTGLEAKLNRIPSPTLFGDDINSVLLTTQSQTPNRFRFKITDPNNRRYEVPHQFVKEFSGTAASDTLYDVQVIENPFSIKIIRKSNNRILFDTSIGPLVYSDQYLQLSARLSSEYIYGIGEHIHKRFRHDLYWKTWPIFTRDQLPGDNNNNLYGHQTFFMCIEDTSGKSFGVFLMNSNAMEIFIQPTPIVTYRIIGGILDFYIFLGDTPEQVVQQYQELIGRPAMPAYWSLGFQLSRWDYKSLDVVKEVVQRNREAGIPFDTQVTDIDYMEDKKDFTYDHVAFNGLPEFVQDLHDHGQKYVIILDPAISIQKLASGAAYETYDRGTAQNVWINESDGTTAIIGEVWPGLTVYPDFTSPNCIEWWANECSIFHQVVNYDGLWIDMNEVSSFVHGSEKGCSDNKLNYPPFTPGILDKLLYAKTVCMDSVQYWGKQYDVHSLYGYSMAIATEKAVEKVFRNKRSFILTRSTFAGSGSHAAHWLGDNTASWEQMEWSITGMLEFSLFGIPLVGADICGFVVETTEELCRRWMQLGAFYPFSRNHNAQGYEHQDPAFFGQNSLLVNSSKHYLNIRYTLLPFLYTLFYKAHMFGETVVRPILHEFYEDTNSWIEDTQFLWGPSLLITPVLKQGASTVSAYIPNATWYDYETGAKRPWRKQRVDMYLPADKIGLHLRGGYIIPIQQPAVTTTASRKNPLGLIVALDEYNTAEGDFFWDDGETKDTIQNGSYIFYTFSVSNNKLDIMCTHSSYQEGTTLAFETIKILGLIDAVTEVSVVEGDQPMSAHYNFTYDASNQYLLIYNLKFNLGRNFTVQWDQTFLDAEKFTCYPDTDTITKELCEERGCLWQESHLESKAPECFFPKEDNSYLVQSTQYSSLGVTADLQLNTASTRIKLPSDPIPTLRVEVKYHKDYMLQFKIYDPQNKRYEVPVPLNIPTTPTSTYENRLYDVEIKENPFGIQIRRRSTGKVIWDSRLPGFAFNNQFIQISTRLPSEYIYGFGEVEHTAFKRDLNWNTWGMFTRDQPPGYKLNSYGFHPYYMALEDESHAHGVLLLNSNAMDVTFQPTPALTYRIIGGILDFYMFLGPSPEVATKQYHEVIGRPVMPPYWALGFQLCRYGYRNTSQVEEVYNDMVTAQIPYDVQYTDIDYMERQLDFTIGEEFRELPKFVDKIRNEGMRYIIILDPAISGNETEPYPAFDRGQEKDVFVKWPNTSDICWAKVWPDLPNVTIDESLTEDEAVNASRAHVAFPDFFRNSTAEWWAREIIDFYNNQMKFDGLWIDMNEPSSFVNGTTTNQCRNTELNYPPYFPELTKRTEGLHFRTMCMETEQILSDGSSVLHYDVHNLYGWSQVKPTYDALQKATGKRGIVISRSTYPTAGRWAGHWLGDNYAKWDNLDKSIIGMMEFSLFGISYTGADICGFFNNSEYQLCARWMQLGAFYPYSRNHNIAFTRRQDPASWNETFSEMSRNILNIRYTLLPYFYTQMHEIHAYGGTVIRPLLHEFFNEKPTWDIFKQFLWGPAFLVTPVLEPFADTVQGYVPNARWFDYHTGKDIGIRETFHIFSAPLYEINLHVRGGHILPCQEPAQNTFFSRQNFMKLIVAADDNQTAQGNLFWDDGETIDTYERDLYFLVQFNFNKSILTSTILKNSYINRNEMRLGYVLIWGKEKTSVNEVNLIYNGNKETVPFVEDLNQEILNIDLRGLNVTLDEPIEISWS

| Compound | SI conversion rate (sucrase/isomaltase (SI) [1]; [7]) | SI conversion rate (sucrase/isomaltase (SI) [1]; [8]) | KM/Ki (sucrase/isomaltase (SI) [2]; SI/sucrose) | inhibitor strength (in words) (sucrase/isomaltase (SI) [2]; SI/sucrose) | Ki (sucrase/isomaltase (SI) [2]; [9]) | Ki (sucrase/isomaltase (SI) [2]; [10]) | KM/Ki (sucrase/isomaltase (SI) [3]; SI/maltose) | inhibitor strength (in words) (sucrase/isomaltase (SI) [3]; SI/maltose) | Ki (sucrase/isomaltase (SI) [3]; [11]) | Ki (sucrase/isomaltase (SI) [3]; [12]) | Ki ([4]; read-out: Kii) | GM conversion rate [5, 8] | KM/Ki (sucrase/isomaltase (SI) [6]) | Type (of inhibition) (sucrase/isomaltase (SI) [6]) | inhibitor strength (in words) (sucrase/isomaltase (SI) [6]) | KM/Ki [4] | inhibitor strength (in words) [4] | Ki ([4]; read-out: Ki) | GM conversion rate [5, 7] | also measured |
| --- | --- | --- | --- | --- | --- | --- | --- | --- | --- | --- | --- | --- | --- | --- | --- | --- | --- | --- | --- | --- |
| OC[C@H]1O[C@@](CO)(O[C@H]2O[C@H](CO)[C@@H](O)[C@H](O)[C@H]2O)[C@@H](O)[C@@H]1O [Sucrose, reference compound] | 87% | 85% | – | – | – | – | – | – | – | – | – | – | – | – | – | – | – | – | – | – |
| sucrose-C6-acid [Suc-C6S] | – | 2% | 6.2 | strong to very strong | 9 mM | 9 mM | 0.26 | inhibitory action | 43 mM | 5 mM | 4 mM | 0% | 1 | NK | strong to very strong | – | – | – | – | Ki (sucrase/isomaltase (SI) [6]; read-out: Ki): 73 mM; Ki (sucrase/isomaltase (SI) [6]; read-out: Kii): 3 mM |
| N[C@H]1[C@H](O)[C@@H](CO)O[C@@]1(CO)O[C@H]1O[C@H](CO)[C@@H](O)[C@H](O)[C@H]1O [3′-aminosucrose] | 0% | – | 11530 | to a high percentage even at very low concentrations; also recorded: strong to very strong | – | – | 2113 | to a high percentage even at very low concentrations; also recorded: strong to very strong | – | – | 17 mM | – | 8.2 | K | strong to very strong | 3.1 | to a high percentage even at very low concentrations; also recorded: strong to very strong | 1 mM | 0% | enzymatic activity (sucrase/isomaltase (SI) [2]; SI/sucrose, inhibitor concentration of 1 mmol/L): no longer measurable; Ki (sucrase/isomaltase (SI) [2]; SI/sucrose, with preincubation, Dixon evaluation, read-out: Ki): 0.0065 mM; Ki (sucrase/isomaltase (SI) [2]; SI/sucrose, with preincubation, Henderson evaluation, read-out: Ki): 0.0063 mM; Ki (sucrase/isomaltase (SI) [2]; SI/sucrose, without preincubation, Dixon evaluation, read-out: Ki): 0.0052 mM; Ki (sucrase/isomaltase (SI) [2]; SI/sucrose, without preincubation, Henderson evaluation, read-out: Ki): 0.005 mM; sucrose hydrolysis inhibited (sucrase/isomaltase (SI) [2]; concentration of 5 μmol/mL): about 30%; enzymatic activity (sucrase/isomaltase (SI) [3]; SI/maltose, inhibitor concentration of 1 mmol/L): no longer measurable; Ki (sucrase/isomaltase (SI) [3]; SI/maltose, with preincubation, Dixon evaluation, read-out: Ki): 0.0046 mM; Ki (sucrase/isomaltase (SI) [3]; SI/maltose, with preincubation, Henderson evaluation, read-out: Ki): 0.0046 mM; Ki (sucrase/isomaltase (SI) [3]; SI/maltose, without preincubation, Dixon evaluation, read-out: Ki): 0.0054 mM; Ki (sucrase/isomaltase (SI) [3]; SI/maltose, without preincubation, Henderson evaluation, read-out: Ki): 0.0052 mM; maltose hydrolysis inhibited (sucrase/isomaltase (SI) [3]; concentration of 5 μmol/mL): about 50% |
| OC[C@H]1O[C@H](OC[C@H]2OC(O)[C@H](O)[C@@H](O)[C@@H]2O)[C@H](O)[C@@H](O)[C@@H]1O (some centres unmarked) [isomaltose, reference compound] | – | – | – | – | – | – | – | – | – | – | – | – | – | – | – | – | – | – | – | Km (sucrase/isomaltase (SI) [6]; SI/isomaltose basic kinetics, substrate, mean, 37° C., pH 7.0): 73.9 ± 6.8 mM; Vmax (sucrase/isomaltase (SI) [6]; SI/isomaltose basic kinetics, enzyme solution with maltase activity of 5 U/mL): 3.07 ± 0.18 U/mL |
| O=C(O)C1OC(OCC2OC(O)(CO)C(O)C2O)C(O)C(O)C1O (centres unmarked) [Pal-C6′S, palatinose-C6′-acid] | 0.4% | – | 8.4 | strong to very strong | 7 mM | 8 mM | 0.7 | inhibitory action | 16 mM | 31 mM | – | – | 3.7 | K | strong to very strong | 0.22 | inhibitory action | 20 mM | 0.1% | – |
| OC[C@H]1O[C@H](O[C@H]2[C@H](O)[C@@H](O)C(O)O[C@@H]2CO)[C@H](O)[C@@H](O)[C@@H]1O (mixture of isomers) [Maltose, reference compound] | – | 100% | – | – | – | – | – | – | – | – | – | 95.7% | – | – | – | – | – | – | – | Km ([4]; GM/maltose basic kinetics, substrate, mean, 37° C., pH 7.0): 4.2 ± 1 mM; Vmax ([4]; GM/maltose basic kinetics, enzyme solution with maltase activity of 5 U/mL): 4.8 ± 0.7 U/mL |
